# What was measured:
# BRD9A = molecular target: T1, BRD9A (Homo sapiens, UniProt Q9H8M2); experiment: DSF Tm shift assay, BRD9A; format: binding; conditions: single measurement
# T1 construct: Bromodomain DSF Tm assays were performed; made in house
# T1 sequence (Q9H8M2 136-240 limits assumed): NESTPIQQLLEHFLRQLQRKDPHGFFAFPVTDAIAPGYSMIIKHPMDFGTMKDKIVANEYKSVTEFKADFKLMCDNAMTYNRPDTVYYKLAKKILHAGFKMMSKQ
# Procedure: (§1) Protein Expression and Purification.
# (§2) Proteins were cloned, expressed, and purified as previously described.1 […]
# (§3) Bromodomain DSF Tm assays were performed using a Mx3005p real-time PCR machine (Agilent) and low profile 96-well PCR plates (AB-0700, Life Technologies). Protein was buffered in 10 mM HEPES, pH 7.5, 500 mM NaCl and assayed at a concentration of 2 µM with 10 µM inhibitor concentration and 1:1000 SyproOrange (Invitrogen). Excitation and emission filters were set to 465 and 590 nm respectively. The temperature was raised by 3 °C per 1 min from 25–95 °C, and fluorescence readers were taken at each interval. Data analysis was carried out as described previously.2
# (§4) AlphaScreen Displacement Assay.
# (§5) AlphaScreen assays were based on a reported protocol, with minor variations.3 In place of a biotinylated peptide, a biotinylated ligand was used at 25 nM final concentration.
# (§6) Isothermal Calorimetry Experiments.
# (§7) Calorimetric experiments were performed on a VP-ITC micro-calorimeter (MicroCalTM, LLC Northampton, MA). Protein solutions were buffer exchanged by dialysis into buffer 20 mM Hepes pH 7.5, 150 mM NaCl, and 0.5 mM TCEP. All measurements were carried out at 293.15 K while stirring at 286 rpm. The micro syringe was loaded with protein solutions ranging from […]
# BRPF1B = molecular target: T2, BRPF1B (Homo sapiens, UniProt P55201); experiment: DSF Tm shift assay, BRPF1B; format: binding; conditions: single measurement
# T2 construct: Bromodomain DSF Tm assays were performed; made in house
# T2 sequence (P55201 628-732 limits assumed): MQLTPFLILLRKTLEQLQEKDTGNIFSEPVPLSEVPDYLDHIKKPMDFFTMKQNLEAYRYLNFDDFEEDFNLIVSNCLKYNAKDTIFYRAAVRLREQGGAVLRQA
# Procedure: as §1, §2, §3, §4, §5, §6, §7
# CECR2A = molecular target: T3, CECR2A (Homo sapiens, UniProt Q9BXF3); experiment: DSF Tm shift assay, CECR2A; format: binding; conditions: single measurement
# T3 construct: Bromodomain DSF Tm assays were performed; made in house
# T3 sequence (Q9BXF3 434-538 limits assumed): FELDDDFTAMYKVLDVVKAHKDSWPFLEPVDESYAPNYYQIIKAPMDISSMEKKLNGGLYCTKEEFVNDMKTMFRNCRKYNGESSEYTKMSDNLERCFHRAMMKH
# Procedure: as §1, §2, §3, §4, §5, §6, §7
# [1] = Aqueous stability by 1H NMR in D2O time course; format: physicochemical
# Description: Compounds were synthesized by the routes shown in Scheme 1. Amidation of 2-aminobenzamide 2 with 4-chlorobutanoyl chloride[29] gave amide 3, which could be cyclized to the 2,3-dihydropyrrolo[1,2-a]quinazolin-5(1H)-one core 4 using potassium tert-butoxide. The isomer was confirmed on the basis of NOE correlations and subsequent crystallography. The weak nucleophilicity of the core was then exploited by reacting compound 4 with substituted N,N-dialkylformamides using Vilsmeier–Haack conditions, giving analogues incorporating nitrogen-based aliphatic side chains solely as the E regioisomer. This chemistry was unsuitable for piperazine-based formamides. For these side chains, analogues 12–15 were synthesized as single regioisomers by displacement of the dimethylamino group in 5 using cyclic secondary amines and DMAP catalysis. Due to the potential for hydrolysis of the enamine-like moiety, the aqueous stability of 5 was assessed by ^1H NMR in a D2O time course experiment and was stable for >24 h. […] Their binding to PB1(5) was assessed by the operationally simple DSF assay (Table 1). […] Six-membered aliphatic rings (10–14) were better tolerated than analogues containing six-membered aromatic side chains (see Supporting Information), likely due to their greater flexibility. However, expansion to a seven-membered ring reduced activity.
smiles,measurement,setting,value
"CN(C)/C=C1\CCn2c1nc(=O)c1ccccc12 [Compound 5, (E)-3-((Dimethylamino)methylene)-2,3-dihydropyrrolo[1,2-a]quinazolin-5(1H)-one]",BRD9A Tm,BRD9A,0.2 °C
same,BRPF1B Tm,BRPF1B,0.1 °C
same,CECR2A Tm,CECR2A,0.1 °C
same,aqueous stability,[1],> 24 h
